≈ marks a conversion by molar mass, not a printed value. Where “and” joins values, the source holds several entries; their conditions need not be identical. Equal values may be shown once. Read-outs that look alike come from different tables or passages of the source.
Columns and labels:
[1] = test system: Clostridium perfringens CCM 4435; assay: microbe, parasite or virus in culture; format: cell-based; conditions: CCM4435
[2] = test system: Bacteroides fragilis CCM 4712; assay: MIC against anaerobic bacteria, tube dilution method; format: cell-based; conditions: CCM4712, anaerobic conditions, 35°C, 48 h (confirmed 72 h)
[3] = Carboxyfluorescein leakage assay, LUV from bacterial lipids; format: biochemical, Bacillus subtilis; conditions: for Hill coefficient n, rapid initial phase of CF release: LPPO 0.8 mg/L, 60 μM phospholipid, 25°C
Description: Bacterial phospholipids were extracted with hexane/2-propanol (3:2, v/v) mixture from B. subtilis 168 cell biomass (2000 ml of culture in LB medium) harvested in exponential phase by rapid filtration (Synpor no. 5 filter, Pragochema, Czech Republic). Phospholipids from human erythrocytes (0.5 ml, volunteer blood donor) were extracted with chloroform/2-propanol mixture (7:11, v/v) after hemolysis using distilled water. After evaporation of the solvent in vaccuo at 40°C, the phospholipids were dissolved in chloroform, filtered through glass fiber filters (Whatman) and concentrated under a stream of nitrogen. The lipid samples were stored at -80°C and used for liposome preparation.
Vesicles to be used in the carboxyfluorescein (CF) leakage assay were prepared by mixing the appropriate amount of lipids (1 mg/ml) with chloroform/methanol 2:1 (v/v). The solvent was subsequently evaporated under a nitrogen gas stream obtaining a thin film on the walls of a glass tube. The hydration procedure in a buffer containing 50 mM CF, 5 mM HEPES pH 7.4 lasted for 60 min at 40°C, interrupted by thorough vortexing to form multilamellar vesicles. Large unilamellar vesicles (LUV) were prepared by repeated extrusion of the multilamellar vesicles through 100 nm polycarbonate filters (Avestin) using the LiposoFast Basic apparatus (Avestin, Canada). Vesicles were separated from nonencapsulated dye by gel filtration on Sephadex G-50 using 100 mM NaCl, 0.5 mM Na2EDTA and 5 mM HEPES, pH 7.4 as elution buffer. Fractions with the highest content of the entrapped dye were pooled and dissolved in the same buffer to the final phospholipid concentration of 60 μM.
The release of vesicle contents after adding LPPO solutions was evaluated by the increased fluorescence intensity of CF released into the milieu which we express as the percentage of leakage. […] Maximum release of CF fluorescence (F max) was induced by lysing the vesicles with 0.1% (v/v) Triton X-100. Fluorescence intensity was monitored in time (excitation at 480 nm, emission at 515 nm) at 25°C using FluoroMax-3 (Jobin Yvon, Horriba) spectrofluorometer. The following equation was used to calculate the percent of CF leakage: % CF leakage = [(F–F 0)/(F max−F 0)] × 100, where F is the actual fluorescence intensity and F 0 is the fluorescence intensity before addition of the permeabilizing agent. Using Fityk software the time courses of liposome lysis were fitted by a function: α(1-exp(-t/τ))^n, where t is the time, α is the amplitude of the effect, τ is the time constant of the effect, and n is Hill coefficient (S3 Fig).

[4] = Carboxyfluorescein leakage assay, LUV from erythrocyte lipids; format: biochemical, human; conditions: LPPO 0.8 mg/L, 60 μM phospholipid, 25°C
Description: After evaporation of the solvent in vaccuo at 40°C, the phospholipids were dissolved in chloroform, filtered through glass fiber filters (Whatman) and concentrated under a stream of nitrogen. The lipid samples were stored at -80°C and used for liposome preparation. Vesicles to be used in the carboxyfluorescein (CF) leakage assay were prepared by mixing the appropriate amount of lipids (1 mg/ml) with chloroform/methanol 2:1 (v/v). The solvent was subsequently evaporated under a nitrogen gas stream obtaining a thin film on the walls of a glass tube. […] The release of vesicle contents after adding LPPO solutions was evaluated by the increased fluorescence intensity of CF released into the milieu which we express as the percentage of leakage. […] Maximum release of CF fluorescence (F max) was induced by lysing the vesicles with 0.1% (v/v) Triton X-100. Fluorescence intensity was monitored in time (excitation at 480 nm, emission at 515 nm) at 25°C using FluoroMax-3 (Jobin Yvon, Horriba) spectrofluorometer. The following equation was used to calculate the percent of CF leakage: % CF leakage = [(F–F 0)/(F max−F 0)] × 100, where F is the actual fluorescence intensity and F 0 is the fluorescence intensity before addition of the permeabilizing agent. […]

[5] = Critical micellar concentration (conductometry); format: physicochemical; conditions: 37°C
Description: Critical micellar concentration (CMC) values were measured (using conductometry method, COND 7, XS Laboratories instrument) and calculated according to literature procedure. LogD values were calculated using software package ACD Labs.

Streptococcus agalactiae = assay: Induction of resistance by repeated passages, MIC after each step; format: cell-based
[6] = test system: Enterococcus faecalis CCM 4224; assay: as above; format: cell-based
[7] = test system: Staphylococcus aureus CCM 4223; assay: MIC, standard microdilution method; conditions: CCM4223, 24 h
Bacillus subtilis = assay: MIC, standard microdilution method; conditions: Bacillus subtilis
[8] = read-out: MIC after induction step, step 1
[9] = read-out: MIC after induction step, step 2
[10] = read-out: MIC after induction step, step 3
[11] = read-out: MIC after induction step, step 4
[12] = read-out: MIC after induction step, step 5
[13] = read-out: MIC after induction step, step 6
[14] = read-out: MIC after induction step, step 7
[15] = read-out: MIC after induction step, step 8
[16] = read-out: MIC after induction step, step 9
[17] = read-out: MIC after induction step, step 10
[18] = read-out: MIC after induction step, step 11
[19] = read-out: MIC after induction step, step 12
[20] = read-out: MIC after induction step, step 13
[21] = read-out: MIC after induction step, step 14
[22] = CCM4224, read-out: MIC after induction step, step 1
[23] = CCM4224, read-out: MIC after induction step, step 2
[24] = CCM4224, read-out: MIC after induction step, step 3
[25] = CCM4224, read-out: MIC after induction step, step 4
[26] = CCM4224, read-out: MIC after induction step, step 5
[27] = CCM4224, read-out: MIC after induction step, step 6
[28] = CCM4224, read-out: MIC after induction step, step 7
[29] = CCM4224, read-out: MIC after induction step, step 8
[30] = CCM4224, read-out: MIC after induction step, step 9
[31] = CCM4224, read-out: MIC after induction step, step 10
[32] = CCM4224, read-out: MIC after induction step, step 11
[33] = CCM4224, read-out: MIC after induction step, step 12
[34] = CCM4224, read-out: MIC after induction step, step 13
[35] = CCM4224, read-out: MIC after induction step, step 14

CCCCCCCCCCCCCCCCOP(=O)(CCN1C[C@@H](O)[C@H](O)C1)OC[C@H]1O[C@@H](n2ccc(=O)[nH]c2=O)[C@H](O)[C@@H]1O (some centres unmarked) [DR5026]
MIC [1]: 12.5 µg/mL (≈ 18.9 µM) | MIC [2]: 12.5 µg/mL (≈ 18.9 µM) | Hill coefficient n, rapid initial phase of CF release [3]: 0.5 ± 0.2 | fit Hill coefficient n, initial phase f(x) ([3]; S3 Fig data set): 0.6 | fit Hill coefficient n, latter phase g(x) ([3]; S3 Fig data set): 3.1 | fit amplitude α, initial phase f(x) of liposome lysis ([3]; S3 Fig data set): 29.7 | fit amplitude α, latter phase g(x) of liposome lysis ([3]; S3 Fig data set): 76.4 | fit time constant τ, initial phase f(x) ([3]; S3 Fig data set): 175.5 s | fit time constant τ, latter phase g(x) ([3]; S3 Fig data set): 28.2 s | CF release, % of the maximum (Triton X-100) [4]: 8% | CMC in H2O [5]: 4 mM and 3 g/L | MIC (Streptococcus agalactiae; [8]): 3.1 µg/mL (≈ 4.68 µM) | MIC (Streptococcus agalactiae; [9]): 3.1 µg/mL (≈ 4.68 µM) | MIC (Streptococcus agalactiae; [10]): 3.1 µg/mL (≈ 4.68 µM) | MIC (Streptococcus agalactiae; [11]): 3.1 µg/mL (≈ 4.68 µM) | MIC (Streptococcus agalactiae; [12]): 3.1 µg/mL (≈ 4.68 µM) | MIC (Streptococcus agalactiae; [13]): 3.1 µg/mL (≈ 4.68 µM) | MIC (Streptococcus agalactiae; [14]): 6.2 µg/mL (≈ 9.37 µM) | MIC (Streptococcus agalactiae; [15]): 6.2 µg/mL (≈ 9.37 µM) | MIC (Streptococcus agalactiae; [16]): 3.1 µg/mL (≈ 4.68 µM) | MIC (Streptococcus agalactiae; [17]): 3.1 µg/mL (≈ 4.68 µM) | MIC (Streptococcus agalactiae; [18]): 3.1 µg/mL (≈ 4.68 µM) | MIC (Streptococcus agalactiae; [19]): 6.2 µg/mL (≈ 9.37 µM) | MIC (Streptococcus agalactiae; [20]): 6.2 µg/mL (≈ 9.37 µM) | MIC (Streptococcus agalactiae; [21]): 6.2 µg/mL (≈ 9.37 µM) | MIC [6, 22]: 6.2 µg/mL (≈ 9.37 µM) | MIC [6, 23]: 6.2 µg/mL (≈ 9.37 µM) | MIC [6, 24]: 6.2 µg/mL (≈ 9.37 µM) | MIC [6, 25]: 6.2 µg/mL (≈ 9.37 µM) | MIC [6, 26]: 6.2 µg/mL (≈ 9.37 µM) | MIC [6, 27]: 12.5 µg/mL (≈ 18.9 µM) | MIC [6, 28]: 12.5 µg/mL (≈ 18.9 µM) | MIC [6, 29]: 12.5 µg/mL (≈ 18.9 µM) | MIC [6, 30]: 12.5 µg/mL (≈ 18.9 µM) | MIC [6, 31]: 12.5 µg/mL (≈ 18.9 µM) | MIC [6, 32]: 12.5 µg/mL (≈ 18.9 µM) | MIC [6, 33]: 12.5 µg/mL (≈ 18.9 µM) | MIC [6, 34]: 12.5 µg/mL (≈ 18.9 µM) | MIC [6, 35]: 12.5 µg/mL (≈ 18.9 µM) | MIC [7]: 25 µg/mL (≈ 37.8 µM) | MIC (Bacillus subtilis; 24 h): 3.12 µg/mL (≈ 4.72 µM) | MIC (Bacillus subtilis; read-out: MIC against wt B. subtilis, B. subtilis 168, as stated for the resistance selection experiment): ~3 µg/mL (≈ 4.53 µM)

CCCCCCCCCCCCCCCCOCCCOP(=O)(CCN1C[C@@H](O)[C@H](O)C1)OC[C@H]1O[C@@H](n2ccc(=O)[nH]c2=O)[C@H](O)[C@@H]1O (some centres unmarked) [DR5047]
MIC [1]: 12.5 µg/mL (≈ 17.4 µM) | MIC [2]: 6.25 µg/mL (≈ 8.68 µM) | Hill coefficient n, rapid initial phase of CF release [3]: 0.7 ± 0.1 | CF release, % of the maximum (Triton X-100) [4]: 4% | CMC in H2O [5]: 3 mM and 2 g/L | MIC (Streptococcus agalactiae; [8]): 6.2 µg/mL (≈ 8.61 µM) | MIC (Streptococcus agalactiae; [9]): 6.2 µg/mL (≈ 8.61 µM) | MIC (Streptococcus agalactiae; [10]): 6.2 µg/mL (≈ 8.61 µM) | MIC (Streptococcus agalactiae; [11]): 6.2 µg/mL (≈ 8.61 µM) | MIC (Streptococcus agalactiae; [12]): 6.2 µg/mL (≈ 8.61 µM) | MIC (Streptococcus agalactiae; [13]): 6.2 µg/mL (≈ 8.61 µM) | MIC (Streptococcus agalactiae; [14]): 3.1 µg/mL (≈ 4.31 µM) | MIC (Streptococcus agalactiae; [15]): 6.2 µg/mL (≈ 8.61 µM) | MIC (Streptococcus agalactiae; [16]): 6.2 µg/mL (≈ 8.61 µM) | MIC (Streptococcus agalactiae; [17]): 6.2 µg/mL (≈ 8.61 µM) | MIC (Streptococcus agalactiae; [18]): 6.2 µg/mL (≈ 8.61 µM) | MIC (Streptococcus agalactiae; [19]): 6.2 µg/mL (≈ 8.61 µM) | MIC (Streptococcus agalactiae; [20]): 6.2 µg/mL (≈ 8.61 µM) | MIC (Streptococcus agalactiae; [21]): 6.2 µg/mL (≈ 8.61 µM) | MIC [6, 22]: 12.5 µg/mL (≈ 17.4 µM) | MIC [6, 23]: 12.5 µg/mL (≈ 17.4 µM) | MIC [6, 24]: 12.5 µg/mL (≈ 17.4 µM) | MIC [6, 25]: 12.5 µg/mL (≈ 17.4 µM) | MIC [6, 26]: 25 µg/mL (≈ 34.7 µM) | MIC [6, 27]: 25 µg/mL (≈ 34.7 µM) | MIC [6, 28]: 25 µg/mL (≈ 34.7 µM) | MIC [6, 29]: 25 µg/mL (≈ 34.7 µM) | MIC [6, 30]: 25 µg/mL (≈ 34.7 µM) | MIC [6, 31]: 50 µg/mL (≈ 69.5 µM) | MIC [6, 32]: 25 µg/mL (≈ 34.7 µM) | MIC [6, 33]: 25 µg/mL (≈ 34.7 µM) | MIC [6, 34]: 25 µg/mL (≈ 34.7 µM) | MIC [6, 35]: 25 µg/mL (≈ 34.7 µM) | MIC [7]: > 200 µg/mL | MIC (Bacillus subtilis; 24 h, 35°C, brain heart infusion broth): 6.25 µg/mL (≈ 8.68 µM)

Source: PMC4696656, “Insights into the Mechanism of Action of Bactericidal Lipophosphonoxins” (PLoS ONE, 2015)
